{"source": "patent US20130327676A1", "about": "“Packaging of Solid Pharmaceutical Preparations Containing the Active Substance Glyceryl Trinitrate” (G. Pohl-Boskamp GmbH & Co. KG, priority 2011, published 2013)", "origin": "cited, not measured here", "key": {"[1]": {"conditions": "at 20° C."}}}
{"compound": "O=[N+]([O-])OCC(CO[N+](=O)[O-])O[N+](=O)[O-]", "note": "[GTN, glyceryl trinitrate]", "values": [{"measurement": "vapor pressure", "setting": "[1]", "result": 0.25, "unit": "Pa"}, {"measurement": "active substance originally contained in the tablets found in the polyethylene", "setting": "polyethylene sealing layer of the packaging material", "result": 84, "unit": "%"}, {"measurement": "active substance remaining in tablets following storage, of originally contained", "setting": "tablets packaged individually in aluminum foil films with polyethylene sealing layer", "result": "less than 10%"}]}
